This is an account of results in PMC2761990 (Molecular cancer therapeutics, 2009).

Series [1] relates to U1242 cells. Briefly: Radiosurvival, Trypan blue/FACS assay, U1242. Format: cell-based, human.
Series [2] has as its system p53 (S15) phosphorylation. Briefly: IR-induced p53. Format: cell-based, human. Conditions: for inhibition of IR-induced p53 (S15) phosphorylation: 1 h after IR.
In series [3] the target is PI3K (p110δ/p85α) (Homo sapiens, UniProt O00329). Description: PI3-Kinase HTRF assay. Format: biochemical. Conditions: read-out: PI3K (p110δ/p85α) inhibited.
Chain of PI3K (p110δ/p85α) (O00329 whole entry): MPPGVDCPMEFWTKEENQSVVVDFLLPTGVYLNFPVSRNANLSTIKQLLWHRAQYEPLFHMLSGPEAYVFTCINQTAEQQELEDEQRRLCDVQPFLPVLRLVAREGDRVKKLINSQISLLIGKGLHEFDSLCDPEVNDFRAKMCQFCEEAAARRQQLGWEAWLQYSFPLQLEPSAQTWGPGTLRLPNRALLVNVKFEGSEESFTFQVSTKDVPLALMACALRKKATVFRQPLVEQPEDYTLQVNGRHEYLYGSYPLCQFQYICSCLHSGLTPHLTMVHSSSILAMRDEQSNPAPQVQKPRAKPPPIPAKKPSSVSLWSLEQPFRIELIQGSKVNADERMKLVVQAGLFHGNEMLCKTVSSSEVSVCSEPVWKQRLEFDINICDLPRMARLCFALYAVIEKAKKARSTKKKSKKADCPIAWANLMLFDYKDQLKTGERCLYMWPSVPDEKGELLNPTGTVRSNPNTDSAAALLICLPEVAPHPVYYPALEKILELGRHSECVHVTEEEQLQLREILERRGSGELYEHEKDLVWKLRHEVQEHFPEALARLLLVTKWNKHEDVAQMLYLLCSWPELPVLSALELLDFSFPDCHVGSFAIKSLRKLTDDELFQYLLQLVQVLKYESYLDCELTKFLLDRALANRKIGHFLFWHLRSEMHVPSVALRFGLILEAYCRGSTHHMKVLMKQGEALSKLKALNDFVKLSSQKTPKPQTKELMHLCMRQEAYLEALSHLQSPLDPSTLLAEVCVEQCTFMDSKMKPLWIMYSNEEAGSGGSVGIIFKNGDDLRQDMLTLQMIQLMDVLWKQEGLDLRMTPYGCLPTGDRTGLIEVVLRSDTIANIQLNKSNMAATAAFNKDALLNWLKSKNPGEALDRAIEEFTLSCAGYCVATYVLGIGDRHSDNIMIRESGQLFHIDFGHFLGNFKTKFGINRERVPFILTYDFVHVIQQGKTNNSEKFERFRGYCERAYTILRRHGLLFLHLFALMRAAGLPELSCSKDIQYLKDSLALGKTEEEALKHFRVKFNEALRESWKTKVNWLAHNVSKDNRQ
Chain of PI3K (p110δ/p85α) (P27986 whole entry partner): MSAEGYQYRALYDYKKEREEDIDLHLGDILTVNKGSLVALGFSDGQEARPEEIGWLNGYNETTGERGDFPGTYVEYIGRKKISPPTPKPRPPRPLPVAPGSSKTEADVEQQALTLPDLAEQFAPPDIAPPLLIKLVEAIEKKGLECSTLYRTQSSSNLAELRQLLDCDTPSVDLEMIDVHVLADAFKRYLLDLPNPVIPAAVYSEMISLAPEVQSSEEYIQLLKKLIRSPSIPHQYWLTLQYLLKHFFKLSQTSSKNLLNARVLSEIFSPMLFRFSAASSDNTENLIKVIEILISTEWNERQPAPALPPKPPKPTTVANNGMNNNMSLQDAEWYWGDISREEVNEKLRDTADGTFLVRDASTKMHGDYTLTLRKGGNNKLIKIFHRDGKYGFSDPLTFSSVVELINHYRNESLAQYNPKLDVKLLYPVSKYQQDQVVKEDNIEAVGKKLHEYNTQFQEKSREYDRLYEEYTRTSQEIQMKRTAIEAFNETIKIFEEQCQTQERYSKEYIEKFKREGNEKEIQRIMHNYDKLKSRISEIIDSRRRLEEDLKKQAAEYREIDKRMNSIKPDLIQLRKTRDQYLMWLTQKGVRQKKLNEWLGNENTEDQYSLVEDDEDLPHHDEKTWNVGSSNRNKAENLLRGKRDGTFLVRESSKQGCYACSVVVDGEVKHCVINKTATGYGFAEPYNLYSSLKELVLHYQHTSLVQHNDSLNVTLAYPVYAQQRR
The subject of series [4] is h-TERT-immortalized A-T fibroblasts. Description: Radiosurvival, Trypan blue/FACS assay, A-T fibroblasts. In kind it is cell-based, human. Conditions: 10 μM, 7 days post-IR.
Series [5] deals with CHK2 phosphorylation (T68). Briefly: IR-induced CHK2. Format: cell-based, human. Conditions: U1242, 3 μM, 5 Gy, up to 1 h after irradiation.
Series [6] has as its system U1242 cells. Description: Cell growth, AlamarBlue, U1242. Format: cell-based, human. The settings on record: U1242, 3 μM, over a 5 day period.
Series [7] has as its target mTOR (Homo sapiens, UniProt P42345). Description: Millipore KinaseProfiler, mTOR. In kind it is biochemical. Conditions: 1 μM.
In series [8] the test system is (S9) GSK3β phosphorylation. Format: cell-based. Conditions: in vivo and in vitro (Fig. S1C, D).
Series [9] concerns AKT (S473) phosphorylation. Briefly: AKT. Format: cell-based, human.
Series [10] has as its system γ-H2AX (S139). Briefly: IR-induced H2AX. Format: cell-based, human. The settings on record: for γ-H2AX levels: 10 Gy.
For series [11], the system named is h-TERT-immortalized normal fibroblasts. Briefly: Radiosurvival, Trypan blue/FACS assay, normal fibroblasts. In kind it is cell-based, human. Conditions: 10 μM, 7 days post-IR.
The target in series [12] is PI3K (p120γ) (Homo sapiens, UniProt P48736). Description: PI3-Kinase HTRF assay. Format: biochemical. The settings on record: read-out: PI3K (p120γ) inhibited.
Chain of PI3K (p120γ) (P48736 whole entry): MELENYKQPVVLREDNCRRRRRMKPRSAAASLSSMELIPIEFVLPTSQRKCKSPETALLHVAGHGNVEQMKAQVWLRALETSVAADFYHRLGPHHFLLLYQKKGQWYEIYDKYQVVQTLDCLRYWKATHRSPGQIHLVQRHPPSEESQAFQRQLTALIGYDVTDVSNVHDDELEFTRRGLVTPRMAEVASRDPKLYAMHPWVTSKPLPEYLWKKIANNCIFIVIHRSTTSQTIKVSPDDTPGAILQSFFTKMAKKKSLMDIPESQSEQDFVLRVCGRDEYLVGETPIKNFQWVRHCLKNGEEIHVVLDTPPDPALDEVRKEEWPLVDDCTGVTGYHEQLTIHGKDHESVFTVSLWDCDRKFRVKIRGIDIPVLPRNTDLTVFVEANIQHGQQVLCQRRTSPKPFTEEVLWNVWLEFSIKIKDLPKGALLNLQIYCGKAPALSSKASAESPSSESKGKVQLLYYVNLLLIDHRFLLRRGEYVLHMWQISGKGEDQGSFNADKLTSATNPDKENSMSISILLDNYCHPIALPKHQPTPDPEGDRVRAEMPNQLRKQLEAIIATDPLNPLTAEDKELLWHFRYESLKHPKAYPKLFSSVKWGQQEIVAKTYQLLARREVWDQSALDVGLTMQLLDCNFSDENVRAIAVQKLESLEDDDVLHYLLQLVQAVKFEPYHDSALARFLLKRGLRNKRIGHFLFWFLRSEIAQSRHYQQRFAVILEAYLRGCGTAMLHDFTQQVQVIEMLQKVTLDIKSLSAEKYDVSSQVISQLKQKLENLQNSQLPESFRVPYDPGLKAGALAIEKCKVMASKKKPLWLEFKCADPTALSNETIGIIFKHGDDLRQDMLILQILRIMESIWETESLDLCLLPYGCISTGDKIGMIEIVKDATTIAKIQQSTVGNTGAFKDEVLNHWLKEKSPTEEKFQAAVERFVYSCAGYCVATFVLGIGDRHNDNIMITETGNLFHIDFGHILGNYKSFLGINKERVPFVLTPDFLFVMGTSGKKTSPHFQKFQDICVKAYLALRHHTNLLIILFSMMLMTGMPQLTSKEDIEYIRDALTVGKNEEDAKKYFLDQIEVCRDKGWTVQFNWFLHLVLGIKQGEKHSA
Series [13] deals with AKT (S473) phosphorylation. Briefly: Insulin-stimulated AKT phosphorylation, A-T fibroblasts. In kind it is cell-based, human. Conditions: A-T cells, in response to insulin.
Series [14] concerns U87 cells. Description: Invasion through matrigel, U87. In kind it is cell-based. The settings on record: Homo sapiens, U-87 MG, 48 h, read-out: inhibition of invasion through matrigel.
Series [15] relates to panel of 229 protein kinases. Description: Millipore KinaseProfiler panel. Format: biochemical. The settings on record: 1 μM; Table S1.
The test system of series [16] is p53 phosphorylation. Briefly: IR-induced p53 phosphorylation, western blot, U1242 cells. Format: cell-based, human. Conditions: U1242, 3 μM, 5 Gy.
The subject of series [17] is U1242 cells. Briefly: Scratch. In kind it is cell-based, human.
The subject of series [18] is AKT (S473) phosphorylation. Description: AKT. Format: cell-based, human. Conditions: U1242, 3 μM, 5 Gy.
Series [19] has as its system γ-H2AX. Briefly: IR-induced γ-H2AX, western blot, U1242 cells. Format: cell-based, human. Conditions: U1242, 3 μM, 5 Gy, especially at times ≤15 min.
In series [20] the test system is AKT (S473) phosphorylation. Briefly: Insulin-stimulated AKT phosphorylation, normal fibroblasts. Format: cell-based, human. The settings on record: NFs.
Series [21] deals with (S136) BAD phosphorylation. In kind it is cell-based. Conditions: in vivo and in vitro (Fig. S1C, D).
Series [22] relates to U87 cells. Description: Migration assay through 8 μm pore membranes, U87. In kind it is cell-based. Conditions: Homo sapiens, U-87 MG, 6 h, read-out: inhibition of migration.
Series [23] concerns the target PI3K (p110β/p85α) (Homo sapiens, UniProt P42338). Briefly: PI3-Kinase HTRF assay. Format: biochemical. The settings on record: read-out: PI3K (p110β/p85α) inhibited.
The test system of series [24] is U1242 cells. Briefly: Invasion through matrigel inserts, U1242. In kind it is cell-based. The settings on record: Homo sapiens, 48 h, read-out: inhibition of invasion.
Series [25] has as its system U87 cells. Description: Radiosurvival, Trypan blue/FACS assay, U87. Format: cell-based, human. The settings on record: U87, 3 μM, 4 Gy, alone.
In series [26] the test system is panel of 60 protein kinases. The settings on record: cited from earlier work.
The subject of series [27] is AKT T308 phosphorylation. Briefly: Radiation-induced AKT T308 phosphorylation. Format: cell-based. Conditions: Fig. S1B.

Chain of PI3K (p110β/p85α) (P42338 whole entry): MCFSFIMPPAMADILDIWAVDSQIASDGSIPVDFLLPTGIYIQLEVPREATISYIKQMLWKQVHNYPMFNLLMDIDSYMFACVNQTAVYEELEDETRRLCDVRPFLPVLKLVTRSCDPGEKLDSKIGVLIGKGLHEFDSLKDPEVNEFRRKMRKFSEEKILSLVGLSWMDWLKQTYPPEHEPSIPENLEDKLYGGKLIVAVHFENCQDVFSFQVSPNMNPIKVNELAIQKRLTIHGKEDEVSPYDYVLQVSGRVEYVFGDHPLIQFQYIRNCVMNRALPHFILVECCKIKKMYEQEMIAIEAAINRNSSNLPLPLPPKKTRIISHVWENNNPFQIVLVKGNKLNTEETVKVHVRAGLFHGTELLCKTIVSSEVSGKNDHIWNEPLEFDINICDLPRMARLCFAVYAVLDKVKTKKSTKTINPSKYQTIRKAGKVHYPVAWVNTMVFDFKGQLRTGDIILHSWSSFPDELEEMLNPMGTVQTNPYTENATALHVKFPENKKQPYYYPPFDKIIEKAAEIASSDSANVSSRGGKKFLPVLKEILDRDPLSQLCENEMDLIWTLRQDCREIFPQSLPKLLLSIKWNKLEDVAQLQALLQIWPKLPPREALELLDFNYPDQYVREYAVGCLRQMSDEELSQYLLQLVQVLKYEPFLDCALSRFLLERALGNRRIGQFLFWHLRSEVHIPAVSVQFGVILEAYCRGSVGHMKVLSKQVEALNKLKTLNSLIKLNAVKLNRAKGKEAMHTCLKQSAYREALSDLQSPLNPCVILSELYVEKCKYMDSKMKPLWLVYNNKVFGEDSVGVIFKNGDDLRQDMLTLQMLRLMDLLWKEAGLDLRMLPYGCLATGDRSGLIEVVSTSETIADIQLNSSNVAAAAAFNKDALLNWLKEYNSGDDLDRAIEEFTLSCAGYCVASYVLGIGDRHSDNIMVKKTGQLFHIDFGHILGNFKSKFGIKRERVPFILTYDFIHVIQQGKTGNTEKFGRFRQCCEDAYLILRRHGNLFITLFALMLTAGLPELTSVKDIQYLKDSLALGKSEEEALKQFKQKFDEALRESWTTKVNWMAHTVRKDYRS
Chain of PI3K (p110β/p85α) (P27986 whole entry partner): as the sequence (P27986 whole entry partner) above

For the molecule `C[C@@H]1CN(CC(=O)Nc2ccc3c(c2)Cc2cccc(-c4cc(=O)cc(N5CCOCC5)o4)c2S3)C[C@H](C)O1` [KU-60019, 2-((2R, 6S)-2,6-Dimethyl-morpholin-4-yl)-N-[5-(6-morpholin-4-yl-4-oxo-4H-pyran-2-yl)-9H-thioxanthen-2-yl]-acetamide], the radiosensitization result in series [1] (U1242, 3 μM, 4 days post-IR, level between that of U87 cells treated with 1 and 10 μM) is “radiosensitized”; in series [4], “not radiosensitized”; in [11], “radiosensitized”. Also, the “inhibition of IR-induced p53 (S15) phosphorylation” value was “partial inhibited” in [2] (U87, 1 μM, 10 Gy) and “completely inhibited” in [2] (U87, 3 μM, 10 Gy). In addition, in series [2] (U87, 1 μM, after IR), the “p53 (S15) phosphorylation blocked” value is recorded as above 70%. In addition, the “inhibition of p53 phosphorylation” value in [2] (U87, 3 μM, 10 Gy, 15 min post-IR) was “completely inhibited”; in series [16], “completely inhibited”. Further, the inhibition at 1 µM turned out to be 27% in [3], 3% in [12] and 9% in [23]. In addition, the “inhibition of radiation-induced CHK2 phosphorylation (T68)” value in [5] is “completely inhibited”. In addition, the suppression of growth in series [6] was ~ 40%. Besides, in series [7], the mTOR inhibition result is “not inhibited”. The “effect on phosphorylation of (S9) GSK3β” value in series [8] is recorded as “reduced”. Also, the “effect on radiation-induced increase in phospho-AKT (S473)” value in [9] (U87, 3 μM, 5 Gy) is on record as “almost completely blocked”. In addition, the “earliest time of effect on S473 dephosphorylation after addition of drug” value in series [9] (U87, 3 μM, drug alone) turned out to be 5 min. In addition, the “reduction in AKT phosphorylation” value in [9] (U87, insulin-stimulated) was ~ 50%. Also, the “reduction of basal AKT S473 phosphorylation” value in [9] (pooled data from several independent experiments (Fig. S1A)) came to 70%. In [10] (U87, 3 μM, 15 min), the γ-H2AX levels result is given as “reduced significantly”. In series [10] (U87, 10 Gy, 1 h after irradiation), the “effect on H2AX phosphorylation” value is listed as “little to no effect”. The “effect on S473 phosphorylation” value in series [13] was “did not affect”. Further, the inhibition at 3 µM in series [14] was around 60%; in series [17] (Homo sapiens, read-out: inhibition of migration (scratch assay)), at least 50%; in series [24], around 60%. In series [15], the “non-specific target effects against a panel of 229 protein kinases” value is “little to no non-specific target effects”. The “rate of gap closure slower than untreated” value in series [17] (U1242, 3 μM, at 10 h) was 50%. The “effect on basal and radiation-induced AKT S473 phosphorylation” value in series [18] is reported as “almost completely abrogated”. Moreover, the “inhibition of γ-H2AX” value in [19] is “partially inhibited”. Further, the “reduction of AKT phosphorylation” value in [20] is on record as ~ 45%. Further, the “effect on phosphorylation of (S136) BAD” value in series [21] was “reduced”. Also, in [22], the inhibition at 10 µM was at least 70%.
`O=C(NOCC1CC1)c1ccc(F)c(F)c1Nc1ccc(I)cc1Cl` [PD184352, reference compound]: in series [1] (U1242, alone (Fig. S5)), the effect on radiosurvival entry is on record as “slightly radioprotective”. Also, in series [25], the “effect on IR-induced killing” value is recorded as “small but significant effect”.
Take `C=C1[C@@H](O)[C@@H]2O[C@]3(CC[C@H](/C=C/[C@@H](C)[C@@H]4CC(C)=C[C@@]5(O[C@H](C[C@@](C)(O)C(=O)O)CC[C@H]5O)O4)O3)CC[C@H]2O[C@@H]1[C@@H](O)C[C@H](C)[C@H]1O[C@@]2(CCCCO2)CC[C@H]1C` [OA, okadaic acid, reference compound]: the “increase of AKT S473 phosphorylation compared to untreated control” value in series [9] (U87, OA by itself) is on record as above 2 fold. Also, in series [9] (U87, ≥30 nM OA with KU-60019 3 μM, 1 h), the “reduction of the effect of KU-60019 on S473 phosphorylation” value is recorded as above 50%.
Regarding `O=c1cc(-c2cccc3c2Sc2ccccc2S3)oc(N2CCOCC2)c1` [KU-55933, reference compound], the “inhibition of IR-induced p53 (S15) phosphorylation” value is “not at 3 μM” in series [2] (U87, 3 μM, 10 Gy) and “completely inhibited” in [2] (U87, 10 μM, 10 Gy). The “effect on phosphorylation of (S9) GSK3β” value in [8] is “reduced”. For the same molecule, the γ-H2AX levels entry in series [10] (U87, 10 μM, 1 h after irradiation) is “only partly reduced”. The “specificity using a panel of 60 protein kinases” value in [26] is “highly specific for the ATM kinase”. Further, the “effect on radiation-induced AKT T308 phosphorylation” value in [27] is listed as “attenuated”. The “effect on phosphorylation of (S136) BAD” value in [21] was “reduced”.
